Experimental data taken from PubChem BioAssay AID2060912 (Molecular Pharmacology Branch, DTP, NCI, 2025).
pIC50: −log10 of the molar value.

Tested on: HUVEC/MSC spheroids viability
Assay: Human HUVEC/MSC cell line growth inhibition [KRAS2];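 as to viability, T/C: percent of DMSO vehicle control luminescence so 100% = untreated viability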
Details: for viability, T/C: stronger effect = lower value
From the text: Multicellular complex tumor spheroid response to RAS pathway inhibitors in combination with a targeted agents in patient-derived cell lines with oncogenic KRAS variants from multiple cancer types
A high-throughput screen of multi-cell type tumor spheroids was designed to identify active combinations of targeted small molecules and KRAS pathway inhibitors. Complex spheroids include a stromal component modeled by human endothelial cells (HUVEC) and fibroblasts modeled by human mesenchymal stem cells (MSCs). The concentration ranges selected for each drug and investigational agent were based upon clinically achievable concentrations if the clinical Cmax of the agent was known. * [This particular assayID is a followup dataset requested by reviewers of the manuscript. It is a test of the HUVEC and MSC without the tumor cells, and was conducted using different drug plates and a different plate layout.]
Compounds. The drugs and investigational agents: BI-3406 (NSC825286), BAY-293 (NSC824723), batoprotafib (TNO155; NSC825523), sotorasib (AMG 510; NSC818433), MRTX1257 (NSC819558), elimusertib (BAY 1895344; NSC800525), molibresib (GSK525762; NSC774829), temuterkib (LY3214996; NSC803410), venetoclax (NSC766270), alisertib (NSC759677), olaparib (NSC753686), talazoparib (NSC767125), erdafitinib (NSC781556), ipatasertib (NSC767898), cabozantinib (NSC761068), nintedanib (NSC756659), abemaciclib (NSC768073), docetaxel (NSC628503), trametinib (NSC758246), and sapanisertib (NSC764658) were obtained from the National Cancer Institute (NCI) Developmental Therapeutics Program Chemical Repository. The FDA-approved anticancer drug set is available from the Developmental Therapeutics Program. […] The stock solutions were prepared in dimethyl sulfoxide (DMSO, Sigma-Aldrich, St. Louis, MO, cat. D2650) at 800-fold the tested concentration and stored at -70 degrees C prior to their use. All drugs and investigational agents were tested over a range starting from a high concentration at or near the clinical Cmax and decreasing in half-log increments. If the clinical Cmax for an agent had not been determined, the highest concentration tested was 10 microM.
Cell Culture. All cells were maintained in an incubator at 37 degrees C and 5% CO2 with 95% humidity. The PDC lines were cultured according to standard operating procedures established by the NCI PDMR (https://pdmr.cancer.gov/sops/default.htm). Briefly, all PDCs were thawed and cultured in Matrigel-coated flasks prepared with a working solution of 1X Ham's F-12 nutrient mix, without supplementation (Invitrogen, Waltham, MA, cat. 11765054), 100 U/mL penicillin-streptomycin (Invitrogen, cat. 15140122), and 2.5% Matrigel (Corning Inc., Corning, NY, cat. 354248) for the first three passages. All PDCs were cultured in complete DMEM/F-12 media containing advanced DMEM/F-12 (Invitrogen, cat. 12634028), 4.9% defined fetal bovine serum, heat inactivated (HyClone Laboratories Inc., Logan, UT, cat. SH30070.03HI), 389 ng/mL hydrocortisone (Sigma-Aldrich, cat. H4001), 9.7 ng/mL human EGF recombinant protein (Invitrogen, cat. PHG0313), 23.4 microg/mL adenine (Sigma-Aldrich, cat. A2786), 97.3 U/mL penicillin-streptomycin (Invitrogen, cat. 15140122), 1.9 mM L-glutamine (Invitrogen, cat. 25030081), and 9.7 microM Y-27632 dihydrochloride (Tocris Bioscience, Bristol, United Kingdom, cat. 1254). The PDCs were cultured in complete DMEM/F12 media without 9.7 microM Y-27632 dihydrochloride for at least two passages prior to the screen. The established cell line HOP-62 was cultured in RPMI 1640 medium, HEPES (Invitrogen, cat. 22400105) with 10% defined fetal bovine serum (HyClone Laboratories Inc., cat. SH30070.03) and 2 mM L-glutamine (Invitrogen, cat. 25030081). The pooled donor HUVEC were cultured in endothelial cell growth medium 2 (PromoCell, Heidelberg, Germany, cat. C-22011) and the hMSC were cultured in mesenchymal stem cell growth medium 2 (PromoCell, cat. C-28009). […]

COc1cc(Nc2ncc3c(n2)-c2ccc(Cl)cc2C(c2c(F)cccc2OC)=NC3)ccc1C(=O)O + CC1OCC2(CCN(c3cnc(Sc4ccnc(N)c4Cl)c(N)n3)CC2)C1N
pIC50 (curve of first compound, second compound 0.0316 µM): < 5.00
pIC50 (curve of first compound, second compound 0.1 µM): < 5.00
pIC50 (curve of first compound, second compound 0.316 µM): < 5.00
pIC50 (curve of first compound, second compound 1 µM): 5.01
pIC50 (curve of first compound, second compound 3.16 µM): 5.03
pIC50 (curve of first compound, second compound 10 µM): 5.23
viability, T/C (second compound 0.0316 µM, first compound 0.0316 µM): 101%
viability, T/C (second compound 0.0316 µM, first compound 0.1 µM): 128%
viability, T/C (second compound 0.0316 µM, first compound 0.316 µM): 105%
viability, T/C (second compound 0.0316 µM, first compound 1 µM): 87.7%
viability, T/C (second compound 0.0316 µM, first compound 3.16 µM): 85.2%
viability, T/C (second compound 0.0316 µM, first compound 10 µM): 60.1%
viability, T/C (second compound 0.1 µM, first compound 0.0316 µM): 118%
viability, T/C (second compound 0.1 µM, first compound 0.1 µM): 105%
viability, T/C (second compound 0.1 µM, first compound 0.316 µM): 97.5%
viability, T/C (second compound 0.1 µM, first compound 1 µM): 87.5%
viability, T/C (second compound 0.1 µM, first compound 3.16 µM): 103%
viability, T/C (second compound 0.1 µM, first compound 10 µM): 56.9%
viability, T/C (second compound 0.316 µM, first compound 0.0316 µM): 110%
viability, T/C (second compound 0.316 µM, first compound 0.1 µM): 116%
viability, T/C (second compound 0.316 µM, first compound 0.316 µM): 106%
viability, T/C (second compound 0.316 µM, first compound 1 µM): 101%
viability, T/C (second compound 0.316 µM, first compound 3.16 µM): 94.7%
viability, T/C (second compound 0.316 µM, first compound 10 µM): 49.5%
viability, T/C (second compound 1 µM, first compound 0.0316 µM): 106%
viability, T/C (second compound 1 µM, first compound 0.1 µM): 101%
viability, T/C (second compound 1 µM, first compound 0.316 µM): 92.9%
viability, T/C (second compound 1 µM, first compound 1 µM): 81.7%
viability, T/C (second compound 1 µM, first compound 3.16 µM): 77.2%
viability, T/C (second compound 1 µM, first compound 10 µM): 47.4%
viability, T/C (second compound 3.16 µM, first compound 0.0316 µM): 79.5%
viability, T/C (second compound 3.16 µM, first compound 0.1 µM): 91%
viability, T/C (second compound 3.16 µM, first compound 0.316 µM): 72.4%
viability, T/C (second compound 3.16 µM, first compound 1 µM): 88.8%
viability, T/C (second compound 3.16 µM, first compound 3.16 µM): 79.2%
viability, T/C (second compound 3.16 µM, first compound 10 µM): 48.2%
viability, T/C (second compound 10 µM, first compound 0.0316 µM): 66.4%
viability, T/C (second compound 10 µM, first compound 0.1 µM): 76%
viability, T/C (second compound 10 µM, first compound 0.316 µM): 76%
viability, T/C (second compound 10 µM, first compound 1 µM): 72.6%
viability, T/C (second compound 10 µM, first compound 3.16 µM): 70.8%
viability, T/C (second compound 10 µM, first compound 10 µM): 32.8%

C=CC(=O)N1CCN(c2nc(OCC3CCCN3C)nc3c2CCN(c2cccc4cccc(C)c24)C3)CC1CC#N (stereo unspecified)
viability, T/C (compound 0.03 µM): 94.9% [middle of 9 runs]
viability, T/C (compound 0.949 µM): 73.6% [middle of 9 runs]
viability, T/C (compound 3 µM): 80.8% [middle of 9 runs]
pIC50 (compound alone, run of 05/05/2024): < 5.52
